Assay results taken from patent US20140249143A1, “Compounds And Methods For Enhancing Innate Immune Responses” (GlaxoSmithKline LLC, priority 2011, published 2014).

Key:
Format in all cases: cell-based
[1] = tested on: HCV genotype 1a subgenomic replicon; test: Anti-Hepatitis C replicon assay, genotype 1a (luciferase); conditions: Hepatitis C virus; luciferase activity measured 48 hours later; read-out: HCV Genotype 1A Replicon pEC50 (converted)
Method: (§1) Compounds were assayed for activity against HCV using the genotype 1a and 1b subgenomic replicon model systems. Stable cell lines bearing the genotype 1a and 1b replicons were used for screening of compounds. Both replicons are bicistonic and contain the firefly luciferase gene. The ET cell line is stably transfected with RNA transcripts harboring a I389luc-ubi-neo/NS3-3′/ET replicon with firefly luciferase-ubiquitin-neomycin phosphotransferase fusion protein and EMCV-IRES driven NS3-5B polyprotein containing the cell culture adaptive mutations (E1202G; T1280I; K1846T) (Krieger at al, 2001 and unpublished). The genotype 1a replicon is a stable cell line licensed from Apath LLC, modified to contain the firefly luciferase gene. The cells were grown in DMEM, supplemented with 10% fetal calf serum, 2 mM Glutamine, Penicillin (100 IU/mL)/Streptomycin (100 μg/mL), 1× nonessential amino acids, and 250-500 μg/mL G418 (“Geneticin”). They were all available through Life Technologies (Bethesda, Md.). The cells were plated at 0.5×10^4 cells/well in 384 well plates containing compounds. The final concentration of compounds ranged between 0.03 pM to 50 μm and the final DMSO concentration of 0.5-1%.
(§2) Luciferase activity was measured 48 hours later by adding a Steady glo (Promega, Madison, Wis.). Percent inhibition of replication data was plotted relative to no compound control. Under the same condition, cytotoxicity of the compounds was determined using cell titer glo (Promega, Madison, Wis.). IC50s were determined from a 10 point dose response curve using 3-4-fold serial dilution for each compound, which spans a concentration range>1000 fold. BioAssay determines the level of inhibition for each compound by normalizing cross-talk corrected plate values against the negative (low or background, cells with no compound present) and positive (high DMSO, no cells) controls to determine Percent Inhibition:
(§3) These normalized values are exported to IC50 where they are plotted against the molar compound concentrations using the standard four parameter logistic equation: […]

[2] = tested on: ISG56 (Interferon-Stimulated Gene 56) promoter ISRE; test: ISG56 luciferase reporter assay in HEK 293 cells; conditions: Homo sapiens, HEK293; HEK 293 reporter, 24 hours; 100% = small molecule control test compound; read-out: ISG56 (Average Max Response) %
Method: Compounds of the present invention were tested against a HEK (Human Embryonic Kidney) 293 cell line that was stably transfected with a firefly luciferase reporter gene under the control of the ISG56 (Interferon-Stimulated Gene 56) promoter ISRE (Interferon-Stimulated Response Element). While the ISRE is in the opposite orientation of the wild type promoter, literature^1 cites that the response elements are pallindromic and function properly in either orientation. ^1Reich, N., Evans, B., Levy, D., Fahey, D., Knight, E., Damell, J. E. (1987) Interferon-induced transcription of a gene encoding a 15-kDa protein depends on an upstream enhancer element. See, Proc. Natl. Acad. Sci. 84, (6394-6398).
In preparation for the assay, test compounds were serially diluted 3-fold in DMSO from a typical top concentration of 5 mM and plated at 0.2 μL in a 384-well, polystyrene, tissue culture treated plate with lid (Greiner Bio-One North America, Inc., Monroe, N.C.) to generate 11-point dose response curves in the assay. Low control wells (0% response) contained 0.2 μL of DMSO alone, and high control wells (100% response) contained 0.2 μL of a small molecule control test compound.
Frozen stocks of the transfected HEK 293 cells were washed and recovered in DMEM I Ham's F-12 media (Invitrogen Corporation, Carlsbad, Calif.) supplemented with 10% v/v qualified Australian fetal bovine serum (FBS) (Invitrogen Corporation, Carlsbad, Calif.), 1× GlutaMAX™ (Invitrogen Corporation, Carlsbad, Calif.), 1×MEM non-essential amino acids (NEAA) (Invitrogen Corporation, Carlsbad, Calif.) and 500 μg/ml Geneticin® (Invitrogen Corporation, Carlsbad, Calif.). The cells were diluted to 500,000 cells/mL in the supplemented DMEM/Ham's F-12 media, and 20 μL of the cell suspension were added to each well of the previously prepared 384-well compound plate, resulting in 10,000 cells/well. The plate, with lid, were placed in a 37° C., 5% CO2 humidified incubator for 24 hours.
Following incubation, the plates were removed and placed on the bench top without lids to equilibrate to room temperature for 30 minutes. Steady-Glo® (Promega Corporation, Madison, Wis.) was prepared according to the manufacturer's instructions, and 10 μL were added to each plate well. After a twenty minute incubation at room temperature, luminescence was read on a ViewLux™ (PerkinElmer Inc., Waltham, Mass.).
The data for dose responses were plotted as % activation versus compound concentration following normalization using the formula 100*((U−C1)/(C2−C1)), where U was the unknown value, C1 was the average of the low (0% response) control wells and C2 was the average of the high (100% response) control wells. Curve fitting was performed with the equation y=A+((B−A)/(1+(10^x/10^C)^D)), where A was the minimum response, B was the maximum response, C was the log(EC50) and D was the Hill slope. The results for each test compound were recorded as pEC50 values (—C in the above equation) and as max response values at a given concentration.

[3] = tested on: HCV genotype 1b subgenomic replicon; test: Anti-Hepatitis C replicon assay, genotype 1b (luciferase); conditions: Hepatitis C virus; luciferase activity measured 48 hours later; read-out: HCV Genotype 1B Replicon pEC50 (converted)
Method: as §1, §2, §3

Structure (SMILES)	EC50 [1]	Emax [2]	EC50 [3]
FC(F)Oc1cc(C(F)(F)F)c2ccc3nc(-c4nnco4)cn3c2n1 [Compound 20, 2-[2-(difluoromethoxy)-4-(trifluoromethyl)imidazo[1,2-a]1,8-naphthyridin-8-yl]-1,3,4-oxadiazole]	1 µM	13.5%	1.58 µM
FC(F)(F)c1cc(C(F)(F)F)c2ccc3nc(-c4cnco4)cn3c2n1 [Compound 4, 5-[2,4-bis(trifluoromethyl)imidazo[1,2-a]1,8-naphthyridin-8-yl]-1,3-oxazole]	0.126 µM	178%	0.398 µM
FC(F)(F)c1cc(-c2ccoc2)nc2c1ccc1nc(-c3nnco3)cn12 [Compound 12, 2-[2-(furan-3-yl)-4-(trifluoromethyl)imidazo[1,2-a]1,8-naphthyridin-8-yl]-1,3,4-oxadiazole]	0.398 µM	13.5%	0.794 µM
FC(F)(F)c1cc(Cl)nc2c1ccc1nc(-c3nnco3)cn12 [Compound 29, 2-[2-chloro-4-(trifluoromethyl)imidazo[1,2-a]1,8-naphthyridin-8-yl]-1,3,4-oxadiazole]	6.31 µM	10%	7.94 µM
CC(C)c1cc(C(F)(F)F)c2ccc3nc(-c4nnco4)cn3c2n1 [Compound 3, 2-[2-(propan-2-yl)-4-(trifluoromethyl)imidazo[1,2-a]1,8-naphthyridin-8-yl]-1,3,4-oxadiazole]	0.1 µM	408%	0.316 µM
CC(C)c1cc(C(C)C)c2ccc3nc(-c4nnco4)cn3c2n1 [Compound 30, 2-[2,4-bis(propan-2-yl)imidazo[1,2-a]1,8-naphthyridin-8-yl]-1,3,4-oxadiazole]	0.316 µM		1 µM
FC(F)(F)c1cc(C(F)(F)F)c2ccc3nc(-c4ncco4)cn3c2n1 [Compound 27, 2-[2,4-bis(trifluoromethyl)imidazo[1,2-a]1,8-naphthyridin-8-yl]-1,3-oxazole]	2.51 µM	29%	6.31 µM
FC(F)(F)c1cc(C2CC2)nc2c1ccc1nc(-c3nnco3)cn12 [Compound 5, 2[2-cyclopropyl-4-(trifluoromethyl)imidazo[1,2-a]1,8-naphthyridin-8-yl]-1,3,4-oxadiazole]	0.1 µM	151%	0.398 µM
FC(F)(F)c1cc(C(F)(F)F)c2ccc3[nH]c(-c4nnco4)cc3c2n1 [Compound 8, 2-[2,4-bis(trifluoromethyl)-7H-pyrrolo[2,3-h]quinolin-8-yl]-1,3,4-oxadiazole]	0.631 µM	2.5%	0.631 µM
FC(F)(F)c1cc(C(F)(F)F)c2ccc3nc(-c4nnco4)cn3c2c1 [Compound 24, 2-[6,8-bis(trifluoromethyl)imidazo[1,2-a]quinolin-2-yl]-1,3,4-oxadiazole]	0.631 µM	5.75%	3.16 µM
FC(F)(F)c1cc(C(F)(F)F)c2ccc3cc(-c4nnco4)[nH]c3c2n1 [Compound 15, 2-[6,8-bis(trifluoromethyl)-1H-pyrrolo[3,2-h]quinolin-2-yl]-1,3,4-oxadiazole]	0.398 µM	63.5%	1 µM
FC(F)(F)c1cc(C(F)(F)F)c2ccc3cc(-c4nnco4)n(Cc4ccccc4)c3c2n1 [Compound 14, 2-[1-benzyl-6,8-bis(trifluoromethyl)-1H-pyrrolo[3,2-h]quinolin-2-yl]-1,3,4-oxadiazole]	7.94 µM	10%	1 µM
FC(F)(F)c1cc(C(F)(F)F)c2ccc3[nH]c(-c4cnco4)nc3c2n1 [Compound 28, 5-[6,8-bis(trifluoromethyl)-3H-imidazo[4,5-h]quinolin-2-yl]-1,3-oxazole]	10 µM	11.5%	7.94 µM
FC(F)(F)c1cc(-c2ccccc2)nc2c1ccc1nc(-c3nnco3)cn12 [Compound 17, 2-[2-phenyl-4-(trifluoromethyl)imidazo[1,2-a]1,8-naphthyridin-8-yl]-1,3,4-oxadiazole]	0.501 µM	31.5%	1.26 µM
FC(F)(F)c1cc(-c2cccnc2)nc2c1ccc1nc(-c3nnco3)cn12 [Compound 19, 3-[8-(1,3,4-oxadiazol-2-yl)-4-(trifluoromethyl)imidazo[1,2-a]1,8-naphthyridin-2-yl]pyridine]	12.6 µM	9%	1.58 µM
Cc1cc(C)c2ccc3nc(-c4nnco4)cn3c2n1 [Compound 26, 2-{2,4-dimethylimidazo[1,2-a]1,8-naphthyridin-8-yl}-1,3,4-oxadiazole]	6.31 µM	8%	5.01 µM
CC(C)c1cc(-c2ccccc2)c2ccc3nc(-c4nnco4)cn3c2n1 [Compound 31, 2-[4-phenyl-2-(propan-2-yl)imidazo[1,2-a]1,8-naphthyridin-8-yl]-1,3,4-oxadiazole]	0.398 µM		1.26 µM
Cc1cc(C(F)(F)F)c2ccc3nc(-c4nnco4)cn3c2n1 [Compound 7, 2-[2-methyl-4-(trifluoromethyl)imidazo[1,2-a]1,8-naphthyridin-8-yl]-1,3,4-oxadiazole]	1.26 µM		0.631 µM
FC(F)(F)c1cc(C(F)(F)F)c2ccc3nc(-c4ccco4)cn3c2n1 [Compound 25, 8-(furan-2-yl)-2,4-bis(trifluoromethyl)imidazo[1,2-a]1,8-naphthyridine]	3.98 µM	6.5%	3.16 µM
Cc1c(-c2nnco2)nc2ccc3c(C(F)(F)F)cc(C(F)(F)F)nc3n12 [Compound 9, 2-[9-methyl-2,4-bis(trifluoromethyl)imidazo[1,2-a]1,8-naphthyridin-8-yl]-1,3,4-oxadiazole]	0.158 µM	262%	0.794 µM
FC(F)(F)c1cc(-c2ccsc2)nc2c1ccc1nc(-c3nnco3)cn12 [Compound 6, 2-[2-(thiophen-3-yl)-4-(trifluoromethyl)imidazo[1,2-a]1,8-naphthyridin-8-yl]-1,3,4-oxadiazole]	0.2 µM	7.75%	0.501 µM
CC(C)c1cc(Cl)c2ccc3nc(-c4nnco4)cn3c2n1 [Compound 23, 2-[4-chloro-2-(propan-2-yl)imidazo[1,2-a]1,8-naphthyridin-8-yl]-1,3,4-oxadiazole]	1.26 µM	110%	3.16 µM
O=C(C1CCC1)n1c(-c2nnco2)cc2ccc3c(C(F)(F)F)cc(C(F)(F)F)nc3c21 [Compound 21, 2-[1-cyclobutanecarbonyl-6,8-bis(trifluoromethyl)-1H-pyrrolo[3,2-h]quinolin-2-yl]-1,3,4-oxadiazole]	0.631 µM	70%	2 µM
